The source of these data is patent publication US20260035365A1, “1H-PYRROLO[3,2-B]PYRIDINE DERIVATIVES AS IRREVERSIBLE INHIBITORS OF MUTANT EGFR FOR THE TREATMENT OF CANCER” (Bayer Aktiengesellschaft, priority 2022, published 2026).

For test [1], the target named is mutEGFR (D770_N771insNPG, T790). Kind of test: mutEGFR (D770_N771insNPG, T790) kinase assay. The class given is biochemical, human.
Test [2] deals with BA/F3 (insSVD) cells. The test is described as follows: Ba/F3 cell survival assay (Cell Titer-Glo), EGFR-insSVD. The following applies: Mus musculus, BaF3, 48 h, without IL-3, with EGF. The test is classed as cell-based. Put shortly:
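Ba/F3 cells stably expressing EGFR-insSVD or insSVD T790M via retrovirus (puromycin-selected), switched from IL-3 to 10 ng/mL EGF for 2 days, then plated at 4000 cells/well. Compound added by 100 nL pin transfer; 48 h at 37° C. Viability by CellTiter-Glo luminescence.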

Test [3] relates to BA/F3 (EGFR D770_N771 insSVD T790M) cells. Kind of test: Ba/F3 cell survival assay (Cell Titer-Glo), EGFR-insSVD T790M. The test is classed as cell-based. As to conditions: Ba/F3 EGFR-D770-N771ins_SVD; 48 h, without IL-3, with EGF. As to the method: 293T cells from ATCC were transfected with pBABEpuro expression constructs for WT EGFR or EGFR-insSVD, or EGFR-insSVD T790M, and pCL-Eco packaging vector using Fugene-6 transfection reagent from Promega. Plates were incubated at 37° C. for 48 h. Retrovirus was harvested by filtering the media supernatant through a 0.45 μm filter.
Ba/F3 cells purchased from DSMZ were grown in RPMI+10% FBS+10 ng/mL IL-3 and infected with filtered retroviral supernatant at a 1:2 dilution. Polybrene was added to a concentration of 8 μg/mL, plates were spun for 90 min, and incubated for 16 h at 37° C. 2 μg/mL puromycin was added to the infected cells 24 h after infection and cells were continually grown in the presence of puromycin and 10 ng/mL IL-3. Following stably expressing Ba/F3 cell lines were generated: Ba/F3-EGFR-WT, Ba/F3-EGFR-insSVD, Ba/F3-EGFR-insSVD T790M, (Ba/F3-vector-control).
For cell survival assays, Ba/F3 cells were grown to a density of 1-2 million cells per mL, spun down and resuspended in media without IL-3, and replated at a concentration of 200,000-500,000 cells per mL. The cells ectopically expressing WT EGFR, EGFR-insSVD, or EGFR-insSVD T790M were plated with 10 ng/mL Millipore Culture grade EGF. The cells ectopically expressing pBABEpuro empty vector were plated with 10 ng/mL IL-3.
2 days later, cells were plated in 50 μL in a 384 well plate at a concentration of 4000 cells per well for cells assayed in the absence of IL-3 and 2000 cells per well for cells assayed in the presence of IL-3. 100 nL of compound was added to each well using a 100 nL pin head, and plates were incubated at 37° C. for 48 h.
Cell viability was measured by adding 20 μL of Cell Titer-Glo Luminescent Cell Viability Reagent diluted 1:3 in PBS. Plates were sealed with Perkin Elmer Top-Seal, inverted several times to mix, and immediately centrifuged at 1000 rpm for 2 min. Plates were incubated in low light conditions for 8-10 min and luminescence was measured.

The target of test [4] is mutEGFR (D770_N771insSVD) (Homo sapiens, UniProt P00533, INS767SVD). The test is described as follows: Exon20-mutant-EGFR (D770_N771insSVD) TR-FRET kinase assay. The test is classed as biochemical. As to conditions: 2 mM ATP, 15 min preincubation. The procedure, abridged: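 GST-fused human EGFR fragment R669-A1210 carrying the SVD insertion, Sf9-expressed, typically 15 pg/μl, was preincubated with compound for 15 min at 22° C in pH 7.0 Hepes/MgCl2 buffer. Phosphorylation was read by HTRF (665/620 nm ratio), normalised to no-inhibitor and no-enzyme controls.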
Chain of mutEGFR (D770_N771insSVD) (P00533 with tags, fused parts or gaps INS767SVD limits assumed): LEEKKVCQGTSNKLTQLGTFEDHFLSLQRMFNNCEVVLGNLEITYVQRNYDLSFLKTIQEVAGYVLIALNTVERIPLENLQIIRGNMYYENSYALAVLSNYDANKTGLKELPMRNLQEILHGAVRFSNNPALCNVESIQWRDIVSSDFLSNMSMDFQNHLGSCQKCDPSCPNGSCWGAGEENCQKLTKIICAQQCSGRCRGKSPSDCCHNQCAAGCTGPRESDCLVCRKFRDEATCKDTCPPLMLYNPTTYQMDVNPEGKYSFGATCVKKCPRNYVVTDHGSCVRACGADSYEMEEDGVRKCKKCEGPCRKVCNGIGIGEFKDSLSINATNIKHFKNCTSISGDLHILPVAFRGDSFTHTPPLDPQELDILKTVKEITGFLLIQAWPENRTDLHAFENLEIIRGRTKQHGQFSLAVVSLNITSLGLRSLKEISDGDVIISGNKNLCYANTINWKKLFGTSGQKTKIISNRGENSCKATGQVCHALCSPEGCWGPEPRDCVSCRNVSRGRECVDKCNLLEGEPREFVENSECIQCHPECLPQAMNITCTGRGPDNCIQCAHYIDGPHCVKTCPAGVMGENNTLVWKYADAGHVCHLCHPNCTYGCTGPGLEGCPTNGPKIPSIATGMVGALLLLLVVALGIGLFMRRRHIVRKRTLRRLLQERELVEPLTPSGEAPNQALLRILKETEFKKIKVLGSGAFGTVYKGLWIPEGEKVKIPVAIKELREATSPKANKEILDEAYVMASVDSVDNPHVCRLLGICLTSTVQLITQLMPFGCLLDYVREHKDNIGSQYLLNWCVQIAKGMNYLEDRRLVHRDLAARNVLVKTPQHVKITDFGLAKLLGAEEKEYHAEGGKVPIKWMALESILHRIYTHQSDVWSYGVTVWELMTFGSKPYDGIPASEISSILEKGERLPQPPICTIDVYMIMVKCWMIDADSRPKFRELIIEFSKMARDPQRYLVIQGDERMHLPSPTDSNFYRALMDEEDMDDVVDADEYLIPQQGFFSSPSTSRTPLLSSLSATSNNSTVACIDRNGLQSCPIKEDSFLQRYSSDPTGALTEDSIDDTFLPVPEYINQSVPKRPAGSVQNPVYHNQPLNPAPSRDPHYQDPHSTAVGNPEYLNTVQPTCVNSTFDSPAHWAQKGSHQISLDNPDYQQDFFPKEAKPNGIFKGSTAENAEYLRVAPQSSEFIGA

Chain of mutEGFR (D770_N771insNPG, T790) (P00533 with tags, fused parts or gaps INS770NPG limits assumed): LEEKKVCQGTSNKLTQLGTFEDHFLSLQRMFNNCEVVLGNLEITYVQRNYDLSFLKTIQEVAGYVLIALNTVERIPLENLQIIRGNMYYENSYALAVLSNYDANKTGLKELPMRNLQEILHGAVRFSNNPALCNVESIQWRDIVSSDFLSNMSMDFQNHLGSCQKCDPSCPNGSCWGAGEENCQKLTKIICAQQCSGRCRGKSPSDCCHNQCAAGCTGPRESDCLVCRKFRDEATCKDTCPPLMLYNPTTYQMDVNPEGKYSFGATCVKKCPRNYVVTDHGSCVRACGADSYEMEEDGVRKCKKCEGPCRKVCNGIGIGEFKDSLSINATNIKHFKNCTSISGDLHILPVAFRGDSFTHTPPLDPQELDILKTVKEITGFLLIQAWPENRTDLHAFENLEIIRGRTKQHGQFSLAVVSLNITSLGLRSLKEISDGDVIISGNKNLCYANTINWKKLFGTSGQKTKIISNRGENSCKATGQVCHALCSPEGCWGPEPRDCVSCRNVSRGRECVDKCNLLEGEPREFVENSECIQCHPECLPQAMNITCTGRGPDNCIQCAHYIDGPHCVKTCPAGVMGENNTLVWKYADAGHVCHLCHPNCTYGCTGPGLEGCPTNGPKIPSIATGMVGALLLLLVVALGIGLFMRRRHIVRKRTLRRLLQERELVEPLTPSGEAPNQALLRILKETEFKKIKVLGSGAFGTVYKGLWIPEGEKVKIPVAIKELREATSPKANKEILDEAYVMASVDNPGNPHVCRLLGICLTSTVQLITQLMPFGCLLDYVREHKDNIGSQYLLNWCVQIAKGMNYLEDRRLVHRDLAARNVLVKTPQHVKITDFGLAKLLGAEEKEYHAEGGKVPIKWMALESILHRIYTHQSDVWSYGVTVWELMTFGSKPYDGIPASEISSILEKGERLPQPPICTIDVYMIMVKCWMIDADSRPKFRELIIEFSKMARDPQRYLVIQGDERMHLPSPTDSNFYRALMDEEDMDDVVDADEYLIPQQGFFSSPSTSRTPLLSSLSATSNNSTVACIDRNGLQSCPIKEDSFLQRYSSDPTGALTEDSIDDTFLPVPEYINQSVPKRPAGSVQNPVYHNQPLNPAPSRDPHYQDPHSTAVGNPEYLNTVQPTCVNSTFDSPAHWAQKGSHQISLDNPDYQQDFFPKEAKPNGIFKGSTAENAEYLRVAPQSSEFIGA

In the case of `C=CC(=O)NCCOc1cnccc1-c1[nH]c2cccnc2c1-c1ccc(F)cc1` [Example 1, N-[2-({4-[3-(4-fluorophenyl)-1H-pyrrolo[3,2-b]pyridin-2-yl]pyridin-3-yl}oxy)ethyl]prop-2-enamide], the IC50 in test [1] amounted to 606 nM; in test [2], 4470 nM; in test [3], 9980 nM; in test [4] it was 414 nM.
As for `C=CC(=O)NCCOc1cnccc1-c1[nH]c2cccnc2c1-c1ccccc1` [Example 2, N-(2-{[4-(3-phenyl-1H-pyrrolo[3,2-b]pyridin-2-yl)pyridin-3-yl]oxy}ethyl)prop-2-enamide], the IC50 stood at 751 nM in test [1], 5020 nM in test [2], 9980 nM in test [3] and 461 nM in test [4].
The matching figures for `C=CC(=O)N(C)CCCOc1cnccc1-c1[nH]c2cccnc2c1-c1ccccc1` [Example 3, N-methyl-N-(3-{[4-(3-phenyl-1H-pyrrolo[3,2-b]pyridin-2-yl)pyridin-3-yl]oxy}propyl)prop-2-enamide]: 3410 nM, 9980 nM, 9980 nM and 2840 nM.
The matching figures for `C=CC(=O)N(C)CCOc1cnccc1-c1[nH]c2cccnc2c1-c1ccccc1` [Example 4, N-methyl-N-(2-{[4-(3-phenyl-1H-pyrrolo[3,2-b]pyridin-2-yl)pyridin-3-yl]oxy}ethyl)prop-2-enamide]: 17.1 nM, 346 nM, 9980 nM and 7.58 nM.
For the molecule `C=CC(=O)N1C=C(F)C[C@H]1COc1cnccc1-c1[nH]c2cccnc2c1-c1ccccc1` [Example 113, 1-[(2S)-4-fluoro-2-({[4-(3-phenyl-1H-pyrrolo[3,2-b]pyridin-2-yl)pyridin-3-yl]oxy}methyl)-2,3-dihydro-1H-pyrrol-1-yl]prop-2-en-1-one], the IC50 in test [1] worked out at 0.724 nM; in test [2], 9.99 nM; in test [4], 0.114 nM.
`C=CC(=O)N1C[C@@H](F)C[C@H]1COc1cnccc1-c1[nH]c2cccnc2c1-c1ccccc1` [Example 114, 1-[(2S,4S)-4-fluoro-2-({[4-(3-phenyl-1H-pyrrolo[3,2-b]pyridin-2-yl)pyridin-3-yl]oxy}methyl)pyrrolidin-1-yl]prop-2-en-1-one]: the IC50 was 4.35 nM in test [1], 38.9 nM in test [2] and 0.96 nM in test [4].
In the case of `C=CC(=O)N1CC=C[C@H]1COc1cnccc1-c1[nH]c2cccnc2c1-c1ccccc1` [Example 115, 1-[(2S)-2-({[4-(3-phenyl-1H-pyrrolo[3,2-b]pyridin-2-yl)pyridin-3-yl]oxy}methyl)-2,5-dihydro-1H-pyrrol-1-yl]prop-2-en-1-one], the IC50 worked out at 0.875 nM in test [1], 12.2 nM in test [2] and 0.281 nM in test [4].
The matching figures for `C#CC(=O)N1CC[C@@H](Oc2cnccc2-c2[nH]c3cccnc3c2-c2cc(Cl)ccc2F)C1` [Example 128, 1-[(3R)-3-({4-[3-(5-chloro-2-fluorophenyl)-1H-pyrrolo[3,2-b]pyridin-2-yl]pyridin-3-yl}oxy)pyrrolidin-1-yl]prop-2-yn-1-one]: 208 nM, 765 nM and 63 nM.
The matching figures for `C=CC(=O)N1CCC[C@H]1COc1cncc(F)c1-c1[nH]c2cccnc2c1-c1cc(Cl)ccc1F` [Example 129, 1-{(2S)-2-[({4-[3-(5-chloro-2-fluorophenyl)-1H-pyrrolo[3,2-b]pyridin-2-yl]-5-fluoropyridin-3-yl}oxy)methyl]pyrrolidin-1-yl}prop-2-en-1-one]: 92.6 nM, 110 nM and 1 nM.
The matching figures for `C=CC(=O)N1CCC[C@H]1COc1cnccc1-c1[nH]c2c(C)ccnc2c1-c1ccccc1` [Example 135, 1-[(2S)-2-({[4-(7-methyl-3-phenyl-1H-pyrrolo[3,2-b]pyridin-2-yl)pyridin-3-yl]oxy}methyl)pyrrolidin-1-yl]prop-2-en-1-one]: 1.83 nM, 16.1 nM and 0.589 nM.
For the molecule `C=CS(=O)(=O)N1CCC[C@H]1COc1cnccc1-c1[nH]c2c(C)ccnc2c1-c1ccccc1` [Example 136, 2-(3-{[(2S)-1-(ethenesulfonyl)pyrrolidin-2-yl]methoxy}pyridin-4-yl)-7-methyl-3-phenyl-1H-pyrrolo[3,2-b]pyridine], the figures for the IC50 in test [1], in test [2] and in test [4] were 0.706 nM, 8.43 nM and 0.214 nM, respectively.
The like results for `C=CC(=O)N1CCC[C@H]1COc1cnccc1-c1[nH]c2c(C)ccnc2c1-c1cc(Cl)ccc1F` [Example 137, 1-{(2S)-2-[({4-[3-(5-chloro-2-fluorophenyl)-7-methyl-1H-pyrrolo[3,2-b]pyridin-2-yl]pyridin-3-yl}oxy)methyl]pyrrolidin-1-yl}prop-2-en-1-one] were, in that order, 1.55 nM, 25.1 nM and 0.724 nM.
The like results for `C=CS(=O)(=O)N1CCC[C@H]1COc1cnccc1-c1[nH]c2c(C)ccnc2c1-c1cc(Cl)ccc1F` [Example 138, 3-(5-chloro-2-fluorophenyl)-2-(3-{[(2S)-1-(ethenesulfonyl)pyrrolidin-2-yl]methoxy}pyridin-4-yl)-7-methyl-1H-pyrrolo[3,2-b]pyridine] were, in that order, 1.36 nM, 27 nM and 0.582 nM.
For `C=CS(=O)(=O)N1CC[C@@]1(C)COc1cnccc1-c1[nH]c2cccnc2c1-c1ccccc1` [Example 146, 2-(3-{[(2S)-1-(ethenesulfonyl)-2-methylazetidin-2-yl]methoxy}pyridin-4-yl)-3-phenyl-1H-pyrrolo[3,2-b]pyridine], the IC50 in test [1] was 265 nM; in test [2], 1240 nM; in test [4] it was 32.7 nM.
`C=CC(=O)N1CCC1(C)COc1cnccc1-c1[nH]c2cccnc2c1-c1cccc(C(F)(F)F)c1` (stereo not shown) [Example 147, 1-[(2IRS)-2-methyl-2-{[(4-{3-[3-(trifluoromethyl)phenyl]-1H-pyrrolo[3,2-b]pyridin-2-yl}pyridin-3-yl)oxy]methyl}azetidin-1-yl]prop-2-en-1-one]: the results for the IC50 in test [1], in test [2] and in test [4] were 3680 nM, 6530 nM and 699 nM, respectively.
Turning to `C=CC(=O)N1CCOCC1COc1cnccc1-c1[nH]c2cccnc2c1-c1ccccc1` (stereo not shown) [Example 149, 1-[3-({[4-(3-phenyl-1H-pyrrolo[3,2-b]pyridin-2-yl)pyridin-3-yl]oxy}methyl)morpholin-4-yl]prop-2-en-1-one], the IC50 in test [1] was found to be 17700 nM; in test [2] it was 1290 nM; in test [4], 775 nM.
The like results for `CN(C)C/C=C/C(=O)N1CCOCC1COc1cnccc1-c1[nH]c2cccnc2c1-c1ccccc1` (stereo not shown) [Example 150, (2E)-4-(dimethylamino)-1-[3-({[4-(3-phenyl-1H-pyrrolo[3,2-b]pyridin-2-yl)pyridin-3-yl]oxy}methyl)morpholin-4-yl]but-2-en-1-one] were, in that order, > 20000 nM, 9810 nM and 4660 nM.
On to `C=CC(=O)N1CCOCC1COc1cnccc1-c1[nH]c2cccnc2c1-c1cc(Cl)ccc1F` (stereo not shown) [Example 151, 1-{3-[({4-[3-(5-chloro-2-fluorophenyl)-1H-pyrrolo[3,2-b]pyridin-2-yl]pyridin-3-yl}oxy)methyl]morpholin-4-yl}prop-2-en-1-one], for which the IC50 in test [1] came out at 81.1 nM; in test [2], 282 nM; in test [4], 11 nM.
The like results for `CN(C)C/C=C/C(=O)N1CCOCC1COc1cnccc1-c1[nH]c2cccnc2c1-c1cc(Cl)ccc1F` (stereo not shown) [Example 152, (2E)-1-{3-[({4-[3-(5-chloro-2-fluorophenyl)-1H-pyrrolo[3,2-b]pyridin-2-yl]pyridin-3-yl}oxy)methyl]morpholin-4-yl}-4-(dimethylamino)but-2-en-1-one] were, in that order, 353 nM, 1880 nM and 164 nM.
